The source made the active and inactive calls.
Legend:
[1] = Antioxidant activity assessed as ferric ion reducing activity at 200 ug after 20 mins by UV-visible spectrophotometry; type: functional
MCF7 = assay: Cytotoxicity against human MCF7 cells at 25 to 150 uM after 72 hrs by MTT assay; type: functional, cell-based
[2] = test system: Radical scavenging activity; assay: Antioxidant activity assessed as DPPH radical scavenging activity at 200 ug after 30 mins by UV-visible spectrophotometry; type: functional

Measured: Activity

CC1(C)C=Cc2cc(C3CC(=O)c4ccc(O)cc4O3)ccc2O1 (centres undefined)
active: all assays above

COc1ccc(/C=C/C(=O)c2ccc(O)cc2O)cc1
active: all assays above

COc1ccc(/C=C/C(=O)c2ccc(O)cc2O)cc1CC=C(C)C
active: all assays above

O=C1C[C@@H](c2ccc(O)cc2)Oc2cc(O)ccc21
active: all assays above

CC(C)=CCc1cc(C2CC(=O)c3ccc(O)cc3O2)ccc1O (centres undefined)
active: all assays above

COc1ccc(C2CC(=O)c3ccc(O)cc3O2)cc1 (centres undefined)
active: all assays above

CC1(C)CCc2cc(C3CC(=O)c4ccc(O)cc4O3)ccc2O1 (centres undefined)
active: all assays above

O=C(/C=C/c1ccc(O)cc1)c1ccc(O)cc1O
active: all assays above

CC1(C)CCc2cc(/C=C/C(=O)c3ccc(O)cc3O)ccc2O1
active: all assays above

CC1(C)C=Cc2cc(/C=C/C(=O)c3ccc(O)cc3O)ccc2O1
active: all assays above

CC(C)=CCc1cc(/C=C/C(=O)c2ccc(O)cc2O)ccc1O
active: all assays above

COc1ccc(C2CC(=O)c3ccc(O)cc3O2)cc1CC=C(C)C (centres undefined)
active: all assays above

CC(C)=CCOc1ccc(/C=C/C(=O)c2ccc(O)cc2O)cc1
active: all assays above
